# Measurements from patent publication US7067517B2 (priority 2001, dated 2006).
# Target: T1, Hormone-sensitive lipase (HSL) (Homo sapiens, UniProt Q05469)
# T1 sequence (Q05469 1-1076): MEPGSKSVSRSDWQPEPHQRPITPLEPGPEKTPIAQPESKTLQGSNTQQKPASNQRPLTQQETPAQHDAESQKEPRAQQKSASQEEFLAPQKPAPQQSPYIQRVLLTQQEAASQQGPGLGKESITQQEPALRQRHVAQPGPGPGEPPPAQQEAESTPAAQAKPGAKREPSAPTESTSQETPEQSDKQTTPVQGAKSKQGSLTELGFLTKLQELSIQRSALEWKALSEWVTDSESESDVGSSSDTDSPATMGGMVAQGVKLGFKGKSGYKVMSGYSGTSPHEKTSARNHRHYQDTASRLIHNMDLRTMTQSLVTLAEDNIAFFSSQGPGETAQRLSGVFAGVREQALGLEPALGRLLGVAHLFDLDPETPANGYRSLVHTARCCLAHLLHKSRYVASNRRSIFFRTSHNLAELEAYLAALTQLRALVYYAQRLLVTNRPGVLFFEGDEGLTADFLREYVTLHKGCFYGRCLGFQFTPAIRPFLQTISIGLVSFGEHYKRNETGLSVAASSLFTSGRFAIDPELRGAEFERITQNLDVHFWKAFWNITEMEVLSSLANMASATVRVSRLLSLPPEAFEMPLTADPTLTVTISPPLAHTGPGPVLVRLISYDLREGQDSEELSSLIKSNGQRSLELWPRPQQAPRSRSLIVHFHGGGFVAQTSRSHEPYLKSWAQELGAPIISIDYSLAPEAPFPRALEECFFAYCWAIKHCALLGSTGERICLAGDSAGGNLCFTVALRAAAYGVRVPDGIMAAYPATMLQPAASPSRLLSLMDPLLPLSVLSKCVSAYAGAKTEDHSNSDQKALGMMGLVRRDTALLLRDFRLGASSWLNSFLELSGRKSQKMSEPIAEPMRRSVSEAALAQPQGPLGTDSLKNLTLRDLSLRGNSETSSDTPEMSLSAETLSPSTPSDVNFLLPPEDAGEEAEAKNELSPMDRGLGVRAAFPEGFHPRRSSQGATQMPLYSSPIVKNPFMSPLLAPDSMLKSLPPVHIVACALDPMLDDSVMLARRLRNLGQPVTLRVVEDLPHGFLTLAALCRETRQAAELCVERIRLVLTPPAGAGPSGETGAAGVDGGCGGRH
# Assay: biochemical
# Conditions: 10 μM sample concentration; percent activity relative to a non-inhibited sample (no compound)
# Experimental: Materials. The Hormone-sensitive lipase was provided by Dr. Cecilia Holm, from Lund University Sweden or produced and purified by Novo Nordisk (NN) using the reagents and protocols used by Dr. Holm. […] All other reagents are of commercial grade and obtained from various commercial sources.
# BSA is added as product receptor. The transfer of the fluorochrome from the lipid phase to the water (BSA) phase changes the fluorescent properties of the fluorochrome. The changes can be monitored on a fluorimeter with an excitation wavelength of 450 nm and an emission wavelength of 545 nm.
# Compound and HSL (20 μL compound, 10 μL enzyme and 70 μL PED-BSA buffer) is pre-incubated for 30 min at 25° C. before addition of substrate (100 μL). Amount of formed product is measured after 120 min incubation at 37° C.
row,Structure (SMILES),Test 3190.1 HSL_FL % ACTIVITY All
1,"O=C(Oc1ccc(Oc2ccc3c(C(F)(F)F)cc(C(F)(F)F)nc3n2)cc1)N1CCOCC1 [Example 90, Morpholine-4-carboxylic acid 4-(5,7-bis-trifluoromethyl-[1,8]naphthypyridin-2-yloxy)-phenyl ester]",24%
2,CN(C(=O)Oc1ccc(OC(F)(F)C(F)(F)F)cc1)c1ccccc1 [Example 20],51%

# Same assay, conditions: 10 μM sample concentration; percent activity relative to a non-inhibited sample (no compound); read-out: Test 3190.1 HSL_FL % ACTIVITY All
row,Structure (SMILES),activity at 10 µM
1,"O=C(Oc1ccc(Oc2c(Cl)cncc2Cl)cc1)N1CCOCC1 [Example 85, Morpholine-4-carboxylic acid 4-(3,5-dichloro-pyridin-4-yloxy)-phenyl ester]",88%
2,"O=C(Oc1ccc(Oc2ccc(C(F)(F)F)cn2)cc1)N1CCc2ccccc21 [Example 62, 2,3-Dihydro-indole-1-carboxylic acid 4-(5-trifluoromethyl-pyridin-2-yloxy)-phenyl ester]",88%
3,"COc1ccc(OC)c(-c2c(C)c3ccc(OC(=O)N4CCCc5ccccc54)cc3oc2=O)c1 [Example 81, 3,4-Dihydro-2H-quinoline-1-carboxylic acid 3-(2,5-dimethoxy-phenyl)-4-methyl-2-oxo-2H-chromen-7-yl ester]",36%
4,"Cc1c(Cc2ccccc2)c(=O)oc2cc(OC(=O)N3CCCc4ccccc43)ccc12 [Example 73, 3,4-Dihydro-2H-quinoline-1-carboxylic acid 3-benzyl-4-methyl-2-oxo-2H-chromen-7-yl ester]",39%

# Same assay, conditions: read-out: Test 3190.1 HSL_FL % ACTIVITY All
row,Structure (SMILES),activity at 10 µM
1,"COc1ccc(-c2c(C)c3ccc(OC(=O)N(C)c4ccccc4)cc3oc2=O)cc1 [Example 46, Methyl-phenyl-carbamic acid 3-(4-methoxy-phenyl)-4-methyl-2-oxo-2H-chromen-7-yl ester]",43%
2,"CN(C(=O)Oc1ccc(OC(C)(C)C)cc1)c1ccccc1 [Example 11, Methyl-phenyl-carbamic acid 4-tert-butoxy-phenyl ester]",17%
3,"CN(C(=O)Oc1ccc(-c2ccc(Br)cc2)cc1)c1ccccc1 [Example 24, Methyl-phenyl-carbamic acid 4′-bromo-biphenyl-4-yl-ester]",30%
4,"Cc1c(-c2ccccc2)c(=O)oc2cc(OC(=O)N(C)c3ccccc3)ccc12 [Example 47, Methyl-phenyl-carbamic acid 4-methyl-2-oxo-3-phenyl-2H-chromen-7-yl ester]",42%

# Target: T1, Hormone-sensitive lipase (HSL)
# Assay: Test 2848.2: high-volume screening assay, para-nitrophenyl butyrate (p-NPB) substrate
# Assay type: biochemical
# Conditions: UV-abs 405 nm, 20 min room temp, % Eff (% Inhibition)
# From the text: Materials. The Hormone-sensitive lipase was provided by Dr. Cecilia Holm, from Lund University Sweden or produced and purified by Novo Nordisk (NN) using the reagents and protocols used by Dr. Holm. The substrates used are: ^3H-labeled triolein (TO) from Amersham, Buckinghamshire, U.K. cat No. TRA191; 5–20 Ci/mmol dissolved in toluene, triolein (Sigma, Cat. No. T-1740), fluorochrome-labeled triacylglyceride (cis-octadec-9-enoic acid 2-[12-(7-nitrobenzo[1,2,5]oxadiazol-4-ylamino)dodecanoyloxy]-1-cis-octadec-9-enoyloxymethyl-ethyl ester) prepared by Novo Nordisk (NN) by conventional methods, and 1,3-(di[^3H]-stearin), 2-(PEG-Boitin)glycerol prepared in collaboration with Amersham Pharmacia Biotech, UK and described in WO 01/073442. Phosphatidyl choline (PC) and phosphatidyl inositol (PI) are from Sigma (St Luis Mo. cat. Nos. P-3556 and P-5954 respectively). All other reagents are of commercial grade and obtained from various commercial sources.
# 2848.2: This high-volume screening assay uses para-nitrophenyl butyrate (p-NPB) as substrate for HSL. HSL cleaves p-NPB and the reaction is monitored as an increase in the concentration of para-nitrophenol (p-NP). p-NP can be monitored as an increase in UV-absorbance at 405 nm. The reaction is carried out at room-temp. for 20 min. The action is not stopped, but instead UV-abs is measured at a fixed time (20 min.) Due to autohydrolysis of the substrate the reaction is read at t=0 min. too and t=20 min. and the increase in Abs is calculated as the difference between the two readings. When a compound that inhibits HSL is present, it results in a relative decrease in UV-absorbance. % Eff(% Inhibition)=(S−S0Eff)/(SmaxEff−S0Eff)×100 Where S=signal in UV-abs., S0Eff=assaybuffer alone, SmaxEff=Assaybuffer with the lipase inhibitor.
row,Structure (SMILES),Test 2848.2 HSL % Inhibition All
1,"CC(C)Sc1nnc(OC(=O)N(C)C)n1-c1cccc(C(F)(F)F)c1 [Example 130, Dimethyl-carbamic acid 5-isopropylsulfanyl-4-(3-trifluoromethyl-phenyl)-4H-[1,2,4]triazol-3-yl ester]",30.1%
2,"O=C(Nc1ccc(Cl)cc1)n1nc(-c2ccc(Cl)cc2)cc1CCCO [Example 126, N-(4-Chlorophenyl)-3-(4-chlorophenyl)-5-(3-hydroxypropyl)-pyrazole-1-carboxamide]",33%
3,"CNC(=O)ON=Cc1c(Br)cnn1Cc1ccc(Cl)cc1 [Example 110, 4-Bromo-2-(4-chlorobenzyl)-2H-pyrazole-3-carbaldehyde O-methylcarbamoyl-oxime]",18.8%
4,"CN(C)C(=O)Oc1c(-c2ccccc2)cn(Cc2ccccc2)c(=O)c1-c1ccccc1 [Example 131, Dimethyl carbamic acid 1-benzyl-2-oxo-3,5-diphenyl-1,2-dihydro-pyridin-4-yl ester]",21.6%
5,"CC12CCC(CC1=NOC(=O)NC1CCCCC1)C2(C)C (stereo not drawn) [Example 107, 1,7,7-Trimethyl-bicyclo[2.2.1]heptan-2-one O-cyclohexylcarbamoyl-oxime]",59.9%
6,"CC(C)CCC(C=Cc1ccc(Br)cc1)=NOC(=O)NC(C)C [Example 108, 1-(4-Bromophenyl)-6-methyl-hept-1-en-3-one O-isopropylcarbamoyl-oxime]",37.2%
7,"O=C(NC1CCCCC1)ON=C1c2ccccc2CCc2ccccc21 [Example 105, 10,11-Dihydro-dibenzo[a,d]cyclohepten-5-one O-cyclohexylcarbamoyl-oxime]",26.8%
8,"Cc1ccc(NC(C=O)=NOC(=O)NC2CCCCC2)cc1 [Example 104, 2-Oxo-N-p-tolylacetamide O-(cyclohexylcarbamoyl)-oxime]",19.8%
9,"CCCCCCC(C=Cc1ccc(Cl)cc1)=NOC(=O)NC1CCCCC1 [Example 106, 1-(4-Chlorophenyl)-non-1-en-3-one O-cyclohexylcarbamoyl-oxime]",23.8%
10,"O=C(Nc1ccc(Cl)c(Cl)c1)n1c(-c2ccccc2)nc2ccccc21 [Example 129, N-(3,4-Dichlorophenyl)-2-phenyl-benzimidazole-1-carboxamide]",27%
11,"O=C(NCCc1ccccc1)n1nc(-c2ccc(Oc3ccccc3)cc2)cc1N1CCOCC1 [Example 127, 5-Morpholin-4-yl-3-(4-phenoxyphenyl)-pyrazole-1-carboxylic acid phenethylamide]",58.7%
12,"CN(C)C(=O)On1nnc2ccccc2c1=O [Example 116, Dimethylcarbamic acid 4-oxo-1,2,3-benzotriazin-3-yl ester]",23.5%
13,"O=C(Nc1ccccc1)n1ncc(S(=O)(=O)c2ccc(Cl)cc2)c1-c1ccc(Cl)cc1 [Example 128, N-Phenyl-4-(4-chlorobenzenesulfonyl)-5-(4-chlorophenyl)-pyrazole-1-carboxamide]",33.8%
14,"CN(C)C(=O)On1ccc2ccc(S(C)(=O)=O)cc21 [Example 114, Dimethylcarbamic acid 6-methanesulfonyl-indol-1-yl ester]",42.4%
15,"COc1ccc2c(OC(=O)N(C)C)cc(=O)n(C)c2c1 [Example 132, Dimethyl-carbamic acid 7-methoxy-1-methyl-2-oxo-1,2-dihydro-quinolin-4-yl ester]",19.6%
16,"CCCCCCC(C=Cc1ccc(Cl)cc1)=NOC(=O)NC(C)C [Example 109, 1-(4-Chloro-phenyl)-non-1-en-3-one O-isopropylcarbamoyl-oxime]",15.9%
17,"CCCNC(=O)ON=C(C=Cc1ccc(Br)cc1)CCC(C)C [Example 111, 1-(4-Bromophenyl)-6-methyl-hept-1-en-3-one O-propylcarbamoyl-oxime]",36.2%
